Data: the supplement of paper PMC11061612

Key:
AZD7648 = compound: Cc1cc2ncnn2cc1Nc1ncc2c(n1)n(C1CCOCC1)c(=O)n2C [AZD7648]; details: max 10 µM
Outline: (§1)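 Cancer cell lines were seeded in 1536-well plates in 7.5 μl DMEM/F12 or RPMI with 10% FBS, held 24 hours at 37°C and 5% CO2, then dosed for 72 hours (final DMSO typically 0.2%). Viability was read by CellTiter-Glo 2.0 luminescence and scaled between blank-well and DMSO-well means. The single-agent IC50 comes from dose responses fitted to a two-parameter logistic curve with a non-linear mixed effects model.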

Crizotinib = compound: C[C@@H](Oc1cc(-c2cnn(C3CCNCC3)c2)cnc1N)c1c(Cl)ccc(F)c1Cl [Crizotinib]; details: max 10 µM
Outline: as §1

Venetoclax = compound: CC1(C)CCC(CN2CCN(c3ccc(C(=O)NS(=O)(=O)c4ccc(NCC5CCOCC5)c([N+](=O)[O-])c4)c(Oc4cnc5[nH]ccc5c4)c3)CC2)=C(c2ccc(Cl)cc2)C1 [Venetoclax]; details: max 1 µM
Outline: as §1

Gemcitabine = compound: Nc1ccn([C@@H]2O[C@H](CO)[C@@H](O)C2(F)F)c(=O)n1 [Gemcitabine]; details: max 0.3 µM
Outline: as §1

AZD4320 = compound: CN(CC[C@H](CSC1=CC=CC=C1)NC2=C(C=C(C=C2)S(=O)(=O)NC(=O)C3=CC=C(C=C3)N4CCC(CC4)[C@H](C5=CC=CC=C5C6=CC=C(C=C6)Cl)O)S(=O)(=O)C(F)(F)F)CCO [AZD4320]; details: max 1 µM
Outline: as §1

Olaparib = compound: O=C(c1cc(Cc2n[nH]c(=O)c3ccccc23)ccc1F)N1CCN(C(=O)C2CC2)CC1 [Olaparib]; details: max 10 µM
Outline: as §1

AZD5991 = compound: Cc1c2c(nn1C)CSCc1cc(n(C)n1)CSc1cc(c3ccccc3c1)OCCCc1c(C(=O)O)n(C)c3c-2c(Cl)ccc13 [AZD5991]; details: max 1 µM
Outline: as §1

AZD1390 = compound: CC(C)n1c(=O)n(C)c2cnc3cc(F)c(-c4ccc(OCCCN5CCCCC5)nc4)cc3c21 [AZD1390]; details: max 0.3 µM
Outline: as §1

Selumetinib = compound: Cn1cnc2c(F)c(Nc3ccc(Br)cc3Cl)c(C(=O)NOCCO)cc21 [Selumetinib]; details: max 10 µM
Outline: as §1

AZD8186 = compound: C[C@@H](Nc1cc(F)cc(F)c1)c1cc(C(=O)N(C)C)cc2c(=O)cc(N3CCOCC3)oc12 [AZD8186]
Outline: as §1

AZD5153 = compound: COc1nnc2ccc(N3CCC(c4ccc(OCCN5CCN(C)C(=O)[C@H]5C)cc4)CC3)nn12 [AZD5153]; details: max 1 µM
Outline: as §1

AZD5363 = compound: C1CN(CCC1(C(=O)N[C@@H](CCO)C2=CC=C(C=C2)Cl)N)C3=NC=NC4=C3C=CN4 [AZD5363]; details: max 10 µM
Outline: as §1

Gefitinib = compound: COc1cc2ncnc(Nc3ccc(F)c(Cl)c3)c2cc1OCCCN1CCOCC1 [Gefitinib]; details: max 10 µM
Outline: as §1

AZD6738 = compound: C[C@@H]1COCCN1C2=NC(=NC(=C2)C3(CC3)[S@](=N)(=O)C)C4=C5C=CNC5=NC=C4 [AZD6738]; details: max 10 µM
Outline: as §1

Taselisib = compound: Cc1nc(-c2cn3c(n2)-c2ccc(-c4cnn(C(C)(C)C(N)=O)c4)cc2OCC3)n(C(C)C)n1 [Taselisib]; details: max 10 µM
Outline: as §1

SRA737 = compound: N#Cc1cnc(Nc2cc(NC[C@H]3CNCCO3)c(C(F)(F)F)cn2)cn1 [SRA737]; details: max 10 µM
Outline: as §1

Paclitaxel = compound: CC(=O)O[C@H]1C(=O)[C@@]2(C)[C@H]([C@H](OC(=O)c3ccccc3)[C@]3(O)C[C@H](OC(=O)[C@H](O)[C@@H](NC(=O)c4ccccc4)c4ccccc4)C(C)=C1C3(C)C)[C@]1(OC(C)=O)CO[C@@H]1C[C@@H]2O [Paclitaxel]; details: max 3 µM
Outline: as §1

SN-38 = compound: CCc1c2c(nc3ccc(O)cc13)-c1cc3c(c(=O)n1C2)COC(=O)[C@]3(O)CC [SN-38]; details: max 0.3 µM
Outline: as §1

AZD2811 = compound: CCN(CCO)CCCOc1ccc2c(Nc3cc(CC(=O)Nc4cccc(F)c4)[nH]n3)ncnc2c1 [AZD2811]; details: max 1 µM
Outline: as §1

Lapatinib = compound: CS(=O)(=O)CCNCc1ccc(-c2ccc3ncnc(Nc4ccc(OCc5cccc(F)c5)c(Cl)c4)c3c2)o1 [Lapatinib]; details: max 10 µM
Outline: as §1

AZD0156 = compound: CN(C)CCCOc1ccc(-c2ccc3ncc4c(c3c2)n(C2CCOCC2)c(=O)n4C)cn1 [AZD0156]; details: max 3 µM
Outline: as §1

Etoposide = compound: COc1cc([C@@H]2c3cc4c(cc3[C@@H](O[C@@H]3O[C@@H]5CO[C@@H](C)O[C@H]5[C@H](O)[C@H]3O)[C@H]3COC(=O)[C@H]23)OCO4)cc(OC)c1O [Etoposide]; details: max 10 µM
Outline: as §1

AZD1775 = compound: C=CCn1c(=O)c2cnc(Nc3ccc(N4CCN(C)CC4)cc3)nc2n1-c1cccc(C(C)(C)O)n1 [AZD1775]; details: max 3 µM
Outline: as §1

MK-2206 = compound: NC1(c2ccc(-c3nc4ccn5c(=O)[nH]nc5c4cc3-c3ccccc3)cc2)CCC1 [MK-2206]; details: max 10 µM
Outline: as §1

Dasatinib = compound: CC1=C(C(=CC=C1)Cl)NC(=O)C2=CN=C(S2)NC3=CC(=NC(=N3)C)N4CCN(CC4)CCO [Dasatinib]; details: max 2 µM
Outline: as §1

5-Fluorouracil = compound: O=c1[nH]cc(F)c(=O)[nH]1 [5-Fluorouracil]; details: max 20 µM
Outline: as §1

Palbociclib = compound: CC(=O)c1c(C)c2cnc(Nc3ccc(N4CCNCC4)cn3)nc2n(C2CCCC2)c1=O [Palbociclib]; details: max 10 µM
Outline: as §1

[1] = compound: O=C(Nc1ccc2[nH]nc(-c3ccncc3)c2c1)[C@@H]1CCN(CC(=O)N2CCN(c3ccc(-c4ncccn4)cc3)CC2)C1; details: max 5 µM
Outline: as §1

Carboplatin = compound: C1CC(C1)(C(=O)[O-])C(=O)[O-].N.N.[Pt+2] [Carboplatin]; details: max 10 µM
Outline: as §1

Trametinib = compound: CC(=O)Nc1cccc(-n2c(=O)n(C3CC3)c(=O)c3c(Nc4ccc(I)cc4F)n(C)c(=O)c(C)c32)c1 [Trametinib]; details: max 1 µM
Outline: as §1

Savolitinib = compound: C[C@@H](c1ccc2nccn2c1)n1nnc2ncc(-c3cnn(C)c3)nc21 [Savolitinib]; details: max 1 µM
Outline: as §1

Prexasertib = compound: COc1cccc(OCCCN)c1-c1cc(Nc2cnc(C#N)cn2)n[nH]1 [Prexasertib]; details: max 1 µM
Outline: as §1

Capivasertib = compound: C1CN(CCC1(C(=O)N[C@@H](CCO)C2=CC=C(C=C2)Cl)N)C3=NC=NC4=C3C=CN4 [Capivasertib]; details: max 10 µM
Outline: as §1

Doxorubicin = compound: COc1cccc2c1C(=O)c1c(O)c3c(c(O)c1C2=O)C[C@@](O)(C(=O)CO)C[C@@H]3O[C@H]1C[C@H](N)[C@H](O)[C@H](C)O1 [Doxorubicin]; details: max 1 µM
Outline: as §1

SG3199 = compound: CC1=CN2[C@@H](C1)C=NC3=CC(=C(C=C3C2=O)OC)OCCCCCOC4=C(C=C5C(=C4)N=C[C@@H]6CC(=CN6C5=O)C)OC [SG3199]; details: max 0.001 µM
Outline: as §1

Alisertib = compound: COc1cc(Nc2ncc3c(n2)-c2ccc(Cl)cc2C(c2c(F)cccc2OC)=NC3)ccc1C(=O)O [Alisertib]; details: max 10 µM
Outline: as §1

Cell Line	IC50, cell viability 72 h (AZD7648) [nM]	IC50, cell viability 72 h (Crizotinib) [nM]	IC50, cell viability 72 h (Venetoclax) [nM]	IC50, cell viability 72 h (Gemcitabine) [nM]	IC50, cell viability 72 h (AZD4320) [nM]	IC50, cell viability 72 h (Olaparib) [nM]	IC50, cell viability 72 h (AZD5991) [nM]	IC50, cell viability 72 h (AZD1390) [nM]	IC50, cell viability 72 h (Selumetinib) [nM]	IC50, cell viability 72 h (AZD8186; max 10 µM) [nM]	IC50, cell viability 72 h (AZD5153) [nM]	IC50, cell viability 72 h (AZD5363) [nM]	IC50, cell viability 72 h (Gefitinib) [nM]	IC50, cell viability 72 h (AZD6738) [nM]	IC50, cell viability 72 h (Taselisib) [nM]	IC50, cell viability 72 h (SRA737) [nM]	IC50, cell viability 72 h (Paclitaxel) [nM]	IC50, cell viability 72 h (SN-38) [nM]	IC50, cell viability 72 h (AZD2811) [nM]	IC50, cell viability 72 h (Lapatinib) [nM]	IC50, cell viability 72 h (AZD0156) [nM]	IC50, cell viability 72 h (Etoposide) [nM]	IC50, cell viability 72 h (AZD1775) [nM]	IC50, cell viability 72 h (MK-2206) [nM]	IC50, cell viability 72 h (Dasatinib) [nM]	IC50, cell viability 72 h (5-Fluorouracil) [nM]	IC50, cell viability 72 h (Palbociclib) [nM]	IC50, cell viability 72 h [1] [nM]	IC50, cell viability 72 h (Carboplatin) [nM]	IC50, cell viability 72 h (Trametinib) [nM]	IC50, cell viability 72 h (Savolitinib) [nM]	IC50, cell viability 72 h (Prexasertib) [nM]	IC50, cell viability 72 h (AZD8186; max 3 µM) [nM]	IC50, cell viability 72 h (Capivasertib) [nM]	IC50, cell viability 72 h (Doxorubicin) [nM]	IC50, cell viability 72 h (SG3199) [nM]	IC50, cell viability 72 h (Alisertib) [nM]
HCC-44 (Lung Adenocarcinoma)	> 10000	8920	> 1000	225	> 1000	> 10000	> 1000	> 300	> 10000	> 10000	290	9960	> 10000	> 10000	2240	> 10000	13.6	177	> 1000	> 10000	> 3000	> 10000	934	> 10000	705	> 20000	> 10000	2800	> 10000	236	> 1000						
HuO-3N1 (Osteosarcoma)	> 10000	> 10000	> 1000		> 1000	> 10000	613	> 300	> 10000		> 1000		> 10000	> 10000	6880			275	> 1000	> 10000	> 3000		> 3000	> 10000	305		> 10000			> 1000	> 1000	529	> 3000	> 10000	616	> 1	> 10000
RL95-2 (Endometrial Carcinoma)	> 10000	> 10000	> 1000		> 1000	> 10000	266	> 300	9130		> 1000		> 10000	8390	> 10000			> 300	305	> 10000	> 3000		490		> 2000		> 10000			540	> 1000	93.8	> 3000	1400	> 1000	> 1	2140
RPMI-8866 (Chronic Myelogenous Leukemia)	> 10000	5730	> 1000		362	> 10000	> 1000	> 300	> 10000		47.6		> 10000	926	2450			4.48	449	> 10000	> 3000		349		1130		2710			> 1000	> 1000	10	> 3000	> 10000	125	> 1	153
RT4 (Bladder Carcinoma)	> 10000	> 10000	> 1000		> 1000	> 10000	> 1000	> 300	> 10000		840		> 10000	> 10000	> 10000			43.4	> 1000	> 10000	> 3000		2260		> 2000		> 10000			328	> 1000	> 1000	> 3000	> 10000	642	> 1	2400
SJRH30 (Rhabdomyosarcoma)	> 10000	5220	> 1000		> 1000	> 10000	980	> 300	> 10000		> 1000		> 10000	3800	1470			> 300	> 1000	> 10000	> 3000		317	> 10000	> 2000		> 10000			> 1000	> 1000	15.9	> 3000	4700	967	> 1	9410
SNU-175 (Colorectal Carcinoma)	> 10000	4580	> 1000		> 1000	> 10000	> 1000	> 300	> 10000		236		9290	> 10000	> 10000			208	65.6	> 10000	> 3000		365		> 2000		8340			547	> 1000	761	> 3000	> 10000	502	> 1	377
